Assays:
[1] = Oxidation stability of the quinone (oxygen, radical initiator, 150° C.); assay type: physicochemical; conditions: 0.04 mole quinone in 100 ml 1,2-dichlorobenzene, 10 mg azo-bis-isobutyronitrile, excess oxygen, after 24 h
[2] = Maximum H2O2 capacity in continuous cyclic anthraquinone process test system; conditions: compared with EAQ
Procedure: A working solution consisting of 75% by volume aromatic benzine (C9/C10-alkyl aromatic mixture), 25% by volume tris (2-ethylhexylphosphate), 0.11 mol/l 2-ethylanthraquinone, 0.29 mol/l 2-ethyltetrahydroanthraquinone, 0.13 mol/l 2-isohexylanthraquinone and 0.12 mol/l 2-isohexyltetrahydroanthraquinone was tested in a test system for the cyclic process of the anthraquinone method for producing hydrogen peroxide, consisting of the method steps of hydrogenation, oxidation, and extraction as well as of drying, regeneration and purification concerning the maximum H2O2 production capacity obtainable in continuous operation (g H2O2 produced per liter working solution). […]
The maximum H2O2 capacity of a working solution consisting of 75 by volume aromatic benzine (C9/C10-alkyl aromatic mixture), 25% by volume tris (2-ethylhexyl) phosphate, 0.12 mol/l 2-ethylanthraquinone, 0.28 mol/l 2-ethyltetrahydroanthraquinone, 0.13 mol/l 2-amylanthraquinone and 0.12 mol/l 2-amyltetrahydroanthraquinone was determined analogously to example 6. […]
The maximum H2O2 capacity of a working solution whose solvent system was based essentially on a C9/C10-aromatic benzine and tetrabutylurea (volumetric ratio AB:TBH approximately 3:1) was determined analogously to example 6 at a hydrogenation temperature of 60° C. […]

oxidative degradation under the conditions of the cyclic anthraquinone process [2] | SMILES | residual quinone content [1] [%]
– | CCc1ccc2c(c1)C(=O)c1ccccc1C2=O [EAQ, 2-ethyl anthraquinone, reference compound] | 90
not degraded oxidatively more than EAQ | CC(C)=CCCc1ccc2c(c1)C(=O)c1ccccc1C2=O [IHEAQ, 2-(4-methyl-3-pentenyl) anthraquinone] | 41

Reference: US6355815B1, “Method of producing hydrogen peroxide and reaction promoters therefor” (Degussa AG, priority 1998, dated 2002)
